In US11419865B2, “Method for inducing a sustained immune response” (Cytocom Inc., priority 2016, dated 2022):

Columns and labels:
IBS patients = assay: open-label study in forty-two IBS patients; type: in vivo, human
Protocol: Forty-two IBS patients participated in an open-label study. Participants received 0.5 mg PTI-901/day for 4 weeks and were evaluated during baseline, during treatment, and at 4-week follow-up. Patients recorded degree of abdominal pain, stool urgency, consistency, and frequency. Primary outcomes were number of pain-free days and overall symptom relief, evaluated by a global assessment score. Data were analyzed per protocol. Global assessment improved in 76% of 42 patients. During treatment, the mean weekly number of pain-free days increased from 0.5+/−1 to 1.25+/−2.14 (P=0.011).

[1] = tested on: advanced pancreatic cancer; conditions: cited from earlier work

Row | SMILES | adverse reactions (IBS patients; 0.5 mg/day for 4 weeks) | patients with improved global assessment (IBS patients; 0.5 mg/day for 4 weeks, 42 patients) [%] | mean weekly number of pain-free days during treatment (IBS patients; 0.5 mg/day, baseline 0.5+/−1, P=0.011) [days] | Clinical benefit response, historical controls [1] [%]
1 | Cl.O=C1CC[C@@]2(O)[C@H]3Cc4ccc(O)c5c4[C@@]2(CCN3CC2CC2)[C@H]1O5 [PTI-901] | no significant adverse reactions | 76 | 1.25 ± 2.14 | –
2 | Nc1ccn([C@@H]2O[C@H](CO)[C@@H](O)C2(F)F)c(=O)n1 [gemcitabine] | – | – | – | 23.8
3 | O=c1[nH]cc(F)c(=O)[nH]1 [5-fluorouracil (5-FU), 5-fluorouracil] | – | – | – | 4.8
